Experimental data reported in US6403831B1, “Substituted benzylidene indenyl formamides, acetamides and propionamides” (Cell Pathways, Inc., priority 1996, dated 2002).
pEC50, pIC50: −log10 of the molar value. Marks after values point to notes of the source that are not given here.

How the values were obtained:
[1] = tested on: human colon carcinoma cell line, SW-480; assay: Growth inhibition, Sulforhodamine B (SRB) protein binding assay; type: cell-based; settings: SW-480 cell line, six days continuous exposure
In short: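 SW-480 cells at 1000 cells/well exposed continuously to compound for six days in RPMI with 5% FCS, 0.1% DMSO vehicle. Growth measured by sulforhodamine B staining and optical density relative to controls; IC50 read graphically from mean values, three wells per concentration.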

[2] = tested on: HT-29 human colon carcinoma cells; assay: Apoptosis by morphology (acridine orange/ethidium bromide, condensed chromatin); type: cell-based; settings: HT-29 cells
Description: Apoptosis was measured using an assay of cell death based on morphological characteristics of apoptotic cells (i.e., condensed chromatin). Drug preparation and cell culture conditions were the same as for the SRB assay described above, except that HT-29 human colon carcinoma cells were employed/Confluent cultures were established in 12.5 cm^2 flasks by plating 0.5×10^6 cells/flask. The cultures were assayed for apoptosis by fluorescent microscopy following labeling with acridine orange and ethidium bromide. Floating and attached cells were collected by trypsinization and washed three times in PBS. One ml aliquots were centrifuged (3 g). The pellet was resuspended in 25 μl media and 1 μl of a dye mixture containing 100 μg/ml acridine orange and 100 μg/ml ethidium bromide prepared in PBS and mixed gently. Ten μl of mixture was placed on a microscope slide and covered with a 22 mm^2 coverslip and examined under 40×dry objectives using epillumination and filter combination.
An observer blinded to the identity of the treatments scored at least 100 cells per sample. Apoptotic cells were identified by nuclear condensation of chromatin stained by the acridine orange or ethidium bromide.

[3] = molecular target: T1, COX I (Ovis aries, UniProt P05979); assay: Cyclooxygenase (COX) inhibition, purified COX; type: biochemical; settings: purified COX from ram seminal vesicles; for COX I % Inhibition (100 μM): 100 μM test compound, arachidonic acid 100 μM; for COX I % Inhibition (values marked *): values marked *: 1000 μM test compound
T1 construct: The COX was purified form ram seminal vesicles; from tissue; host or cells: ram seminal vesicles
T1 sequence (P05979 25-600): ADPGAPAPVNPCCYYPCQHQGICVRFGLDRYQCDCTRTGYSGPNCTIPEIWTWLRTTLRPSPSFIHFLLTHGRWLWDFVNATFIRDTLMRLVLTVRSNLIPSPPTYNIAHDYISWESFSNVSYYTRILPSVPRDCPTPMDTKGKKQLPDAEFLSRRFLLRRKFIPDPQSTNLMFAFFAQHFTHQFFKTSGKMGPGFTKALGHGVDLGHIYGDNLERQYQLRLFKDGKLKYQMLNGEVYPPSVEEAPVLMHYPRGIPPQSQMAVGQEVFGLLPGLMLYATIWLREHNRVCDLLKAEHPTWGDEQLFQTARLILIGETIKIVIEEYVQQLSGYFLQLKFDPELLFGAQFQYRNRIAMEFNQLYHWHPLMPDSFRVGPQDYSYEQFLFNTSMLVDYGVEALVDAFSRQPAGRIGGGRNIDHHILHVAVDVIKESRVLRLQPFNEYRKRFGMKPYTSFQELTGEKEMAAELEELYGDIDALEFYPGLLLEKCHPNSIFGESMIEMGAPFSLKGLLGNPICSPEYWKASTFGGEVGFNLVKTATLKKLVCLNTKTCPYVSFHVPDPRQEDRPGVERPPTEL
In short: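 Ram seminal vesicle COX, purified, was incubated 2.0 min at 37° C with 100 μM arachidonic acid with or without test compounds. Reactions stopped with TCA; activity read as absorbance at 530 nm.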

[4] = tested on: SW-480 colon adenocarcinoma cells; assay: Apoptosis by DNA fragmentation (Cell Death Detection ELISA plus); type: cell-based, human; settings: SW-480 cells, 48 hrs; for pEC50: by software or estimated from effective concentration range; for DNA Fragmentation FS (100 μM): fold stimulation FS=ODmax/ODveh
Description: Apoptosis was also measured based on the amount of fragmented DNA contained in cell lysates. Briefly, SW-480 colon adenocarcinoma cells were plated in 96-well microtitre plates (“MTP”) at a density of 10K cells/well in 180 μl and incubated for 24 hrs. Cells were then treated with 20 μl aliquots of appropriately diluted compound, and allowed to incubate for an additional 48 hrs.
After the incubation, samples were prepared according to the following steps. The MTP was centrifuged (15 min., 1000 rpm) and the supernatant was carefully removed by fast inversion of the MTP. The cell pellents in each well were then resuspended in ^200 μl lysis buffer and incubated for 45 min. at room temperature to lyse the cells. The lysates were then centrifuged (15 min., 1000 rpm) and 20 μl aliquots of the supernatant (=cytoplasmic fraction) were transferred into the streptavidin coated MTP for analysis. Care was taken not to shake the lysed pellets in the MTP (=cell nucleii containing high molecular weight, unfragmented DNA). Samples were analyzed immediately, because storage at 4 C or −20 C reduces the ELISA-signals.
Samples were then processed according to a DNA fragmentation assay protocol, and dose-response curves were generated based on optical density readings. Quantification of DNA was done by a commercially available photometric enzyme-immunoassay manufactured by Mannheim-Boehringer under the name “Cell Death Detection ELISA^plus”. The assay is based on a quantitative sandwich-enzyme-immunoassay-principle using mouse monoclonal antibodies directed against DNA and histones, respectively. This allows the specific determination of mono and oligonucleosomes in the cytoplasmatic fraction of cell lysates. In brief, the assay procedure is as follows. The sample (cell-lysate, serum, culture-supernatant etc.) is placed into a streptavidin-coated MTP. Subsequently, a mixture of anti-histone-biotin and anti-DNA-POD are added and incubated for 2 hours. During the incubation period, the anti-histone antibody binds to the histone-component of the nucleosomes and simultaneously fixes the immunocomplex to the streptavidin-coated MTP via its biotinylation. Additionally, the anti-DNA-POD antibody reacts with the DNA component of the nucleosomes. After removal of unbound antibodies by a washing step, the amount of nucleosomes is quantified by the POD retained in the immunocomplex. POD is determined photometrically with ABTS® (2,2′-Azino-di[3-ethylbenzthiazolin-sulfonat])* as substrate.
Fold stimulation (FS=ODmax/ODveh), an indicator of apoptotic response, was determined for each compound tested. EC50 values were determined either specifically by data analysis software, or by estimates based on the effective concentration range of each compound (ECR=min. effective dose-min. dose to peak effect). These FS and EC50 values for the tested compounds are listed above in Table 6.

Compound | pIC50 [1] | Morphology % Apoptotic Cells (1 μM) [2] | COX I % Inhibition (100 μM) [3] | pEC50 [4] | DNA Fragmentation FS (100 μM) [4] | COX I % Inhibition (values marked *) [3]
COc1cc(OC)c(OC)cc1/C=C1/C(C)=C(CC(=O)NCc2ccccc2)c2cc(F)ccc21 [Example 58, (Z)-5-fluoro-2-methyl-1-(2,4,5-trimethoxybenzylidene)-3-(N-benzyl)-indenylacetamide] | 6.01 | 52% | <25% | 6.15 | 2.5 | –
COc1cc(/C=C2/C(C)=C(CC(=O)N(CCC#N)Cc3ccccc3)c3cc(F)ccc32)cc(OC)c1OC [Example 37, (Z)-5-fluoro-2-methyl-1-(3,4,5-trimethoxybenzylidene)-3-(N-benzyl-N-(2-cyanoethyl))-indenylacetamide] | < 5.00 | <20% | – | < 5.00 | 2.5 | 38* %
COc1cc(/C=C2/C(C)=C(CC(=O)NCc3ccccc3)c3cc(F)ccc32)cc(OC)c1OC [Example 1, (Z)-5-fluoro-2-methyl-1-(3,4,5-trimethoxybenzylidene)-3-(N-Benzyl)-indenylacetamide] | 7.40 | 73% | <25% | 7.30 | 4.6 | –
C#CCNC(=O)CC1=C(C)/C(=C/c2cc(OC)c(OC)c(OC)c2)c2ccc(F)cc21 [Example 27, (Z)-5-fluoro-2-methyl-1-(3,4,5-trimethoxybenzylidene)-3-(N-propargyl)-indenylacetamide] | 6.66 | 71% | <25% | 6.15 | 4 | –
COc1cc(/C=C2/C(C)=C(CC(=O)NCCCc3ccccc3)c3cc(F)ccc32)cc(OC)c1OC [Example 40, (Z)-5-fluoro-2-methyl-1-(3,4,5-trimethoxybenzylidene)-3-(N-3-phenylpropyl)-indenylacetamide] | < 5.00 | <20% | – | < 5.00 | <2 | 34* %
COc1cc(/C=C2/C(C)=C(CC(=O)Nc3ccccc3)c3cc(F)ccc32)cc(OC)c1OC [Example 22, (Z)-5-fluoro-2-methyl-1-(3,4,5-trimethoxybenzylidene)-3-(N-phenyl)-indenylacetamide] | 5.35 | 37% | <25% | 5.30 | 2.3 | –
CCOC(=O)CN(Cc1ccccc1)C(=O)CC1=C(C)/C(=C/c2cc(OC)c(OC)c(OC)c2)c2ccc(F)cc21 [Example 31, (Z)-5-fluoro-2-methyl-1-(3,4,5 trimethoxybenzylidene)-3-(N-benzyl-N-glycinylethyl ester)-indenylacetamide] | 5.28 | 30% | – | < 5.00 | <2 | 30* %
COc1ccc(CN(C(=O)CC2=C(C)/C(=C/c3cc(OC)c(OC)c(OC)c3)c3ccc(F)cc32)c2ccccn2)cc1 [Example 35, (Z)-5-fluoro-2-methyl-1-(3,4,5-trimethoxybenzylidene)-3-(N-4-methoxybenzyl-N-(2-pyridinyl))-indenylacetamide] | < 5.00 | 40% | – | < 5.00 | <2 | 37* %
COc1cc(/C=C2/C(C)=C(CC(=O)N[C@@H](C)c3ccccc3)c3cc(F)ccc32)cc(OC)c1OC [Example 43, (Z)-5-fluoro-2-methyl-1-(3,4,5-trimethoxybenzylidene)-3-(N-(S)-1-phenylethyl)-indenylacetamide] | < 5.00 | 25% | – | < 5.00 | <2 | 36* %
COc1cc(/C=C2/C(C)=C(CC(=O)NCc3ccccc3N)c3cc(F)ccc32)cc(OC)c1OC [Example 34, (Z)-5-fluoro-2-methyl-1-(3,4,5-trimethoxybenzylidene)-3-(N-2-aminobenzyl)-indenylacetamide] | 5.21 | 45% | – | < 5.00 | 2.1 | 31* %
COc1ccc(CNC(=O)CC2=C(C)/C(=C/c3cc(OC)c(OC)c(OC)c3)c3ccc(F)cc32)c(OC)c1 [Example 19, (Z)-5-fluoro-2-methyl-1-(3,4,5-trimethoxybenzylidene)-3-(N-2,4-dimethoxybenzyl)-indenylacetamide] | 5.35 | <20% | 33.3% | 5.15 | 2 | –
COc1cc(/C=C2/C(C)=C(CC(=O)N(Cc3ccccc3)C(C)O)c3cc(F)ccc32)cc(OC)c1OC (stereo not drawn) [Example 47, (Z)-5-fluoro-2-methyl-1-(3,4,5-trimethoxybenzylidene)-3-(N-benzyl-N-(1-hydroxyethyl))-idenylacetamide] | 5.39 | 20% | – | 5.24 | 4.4 | 37* %
